One assay addresses MKK2 (Homo sapiens, UniProt P36507). Put plainly: Kinase profiling MKK2. The assay is classed as biochemical. The settings on record: 100 micromolar inhibitor concentration; 100 is no change. From the text:
(§1) Any value less that 25 is considered to be highly significant inhibition.

For another assay, the target named is T1, PKCz (Homo sapiens, UniProt Q05513).
T1 sequence (Q05513 1-592): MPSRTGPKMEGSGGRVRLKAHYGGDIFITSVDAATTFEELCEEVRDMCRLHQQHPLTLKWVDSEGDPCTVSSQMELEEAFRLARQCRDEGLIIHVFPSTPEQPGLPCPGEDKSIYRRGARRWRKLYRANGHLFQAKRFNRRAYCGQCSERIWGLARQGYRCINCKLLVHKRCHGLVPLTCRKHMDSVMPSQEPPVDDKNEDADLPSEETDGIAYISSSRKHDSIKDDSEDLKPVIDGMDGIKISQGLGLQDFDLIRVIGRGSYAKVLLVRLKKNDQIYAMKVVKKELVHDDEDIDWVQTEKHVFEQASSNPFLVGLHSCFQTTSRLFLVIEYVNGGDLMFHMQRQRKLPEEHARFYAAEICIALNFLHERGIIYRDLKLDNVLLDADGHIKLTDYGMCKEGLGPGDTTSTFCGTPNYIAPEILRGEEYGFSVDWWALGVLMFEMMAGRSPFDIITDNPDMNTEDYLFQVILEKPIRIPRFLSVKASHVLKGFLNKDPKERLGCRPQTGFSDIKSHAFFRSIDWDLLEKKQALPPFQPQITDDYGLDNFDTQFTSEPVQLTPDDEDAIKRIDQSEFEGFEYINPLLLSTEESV
The assay is described as follows: Kinase profiling PKCz. The following applies: 100 micromolar inhibitor concentration; 100 is no change. The assay is classed as biochemical.
From the text: as §1

The next assay addresses T2, SGK1 (Homo sapiens, UniProt O00141).
T2 sequence (O00141 1-431): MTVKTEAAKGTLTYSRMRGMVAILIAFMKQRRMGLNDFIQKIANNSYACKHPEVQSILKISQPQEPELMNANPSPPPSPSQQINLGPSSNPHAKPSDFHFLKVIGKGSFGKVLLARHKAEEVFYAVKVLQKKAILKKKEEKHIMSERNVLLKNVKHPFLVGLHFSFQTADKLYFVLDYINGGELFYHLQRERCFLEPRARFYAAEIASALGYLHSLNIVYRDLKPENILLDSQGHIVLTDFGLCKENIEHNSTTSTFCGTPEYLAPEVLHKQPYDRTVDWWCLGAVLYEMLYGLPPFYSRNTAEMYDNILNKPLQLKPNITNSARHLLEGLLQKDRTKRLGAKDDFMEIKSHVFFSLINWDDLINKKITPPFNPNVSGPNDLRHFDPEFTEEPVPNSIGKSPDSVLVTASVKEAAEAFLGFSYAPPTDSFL
Put plainly: Kinase profiling SGK1. Type of assay: biochemical.
From the text: as §1

A further assay concerns the target PKBb (Homo sapiens, UniProt P31751). Put plainly: Kinase profiling PKBb. Type of assay: biochemical. The settings on record: 100 micromolar inhibitor concentration; 100 is no change.
From the text: as §1

The target in the next assay is JNK1 (Homo sapiens, UniProt P45983). The assay is described as follows: Kinase profiling JNK1. The assay is classed as biochemical.
From the text: as §1

In the next assay the target is ERK1 (Homo sapiens, UniProt P27361). Put plainly: Kinase profiling ERK1. Type of assay: biochemical. The settings on record: 100 micromolar inhibitor concentration; 100 is no change.
From the text: as §1

The next assay deals with CAMK1 (Homo sapiens, UniProt Q14012). Put plainly: Kinase profiling CAMK1. The assay is classed as biochemical.
From the text: as §1

The target of another assay is SRPK1 (Homo sapiens, UniProt Q96SB4). Put plainly: Kinase profiling SRPK1. Type of assay: biochemical.
From the text: as §1

In the next assay the test system is AMPK (hum). Put plainly: Kinase profiling AMPK (hum). The assay is classed as biochemical, human.
From the text: as §1

The next assay deals with IGF-1R (Homo sapiens, UniProt P08069). The assay is described as follows: Kinase profiling IGF-1R. The assay is classed as biochemical.
From the text: as §1

The next assay deals with T3, LKB1 (Homo sapiens, UniProt Q15831).
T3 sequence (Q15831 1-433): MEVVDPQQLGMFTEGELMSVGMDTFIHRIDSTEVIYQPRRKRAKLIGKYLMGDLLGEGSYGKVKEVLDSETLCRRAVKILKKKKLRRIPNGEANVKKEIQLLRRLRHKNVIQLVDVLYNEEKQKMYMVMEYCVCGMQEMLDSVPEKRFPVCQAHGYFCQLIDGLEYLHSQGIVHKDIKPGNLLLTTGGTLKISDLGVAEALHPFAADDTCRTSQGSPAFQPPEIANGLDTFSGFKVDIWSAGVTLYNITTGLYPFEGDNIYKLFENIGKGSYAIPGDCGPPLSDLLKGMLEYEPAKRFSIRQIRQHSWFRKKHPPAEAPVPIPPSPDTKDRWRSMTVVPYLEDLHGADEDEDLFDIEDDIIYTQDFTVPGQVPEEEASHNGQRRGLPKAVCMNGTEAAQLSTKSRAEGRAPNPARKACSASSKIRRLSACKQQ
T3 sequence (Q7RTN6 1-431 partner): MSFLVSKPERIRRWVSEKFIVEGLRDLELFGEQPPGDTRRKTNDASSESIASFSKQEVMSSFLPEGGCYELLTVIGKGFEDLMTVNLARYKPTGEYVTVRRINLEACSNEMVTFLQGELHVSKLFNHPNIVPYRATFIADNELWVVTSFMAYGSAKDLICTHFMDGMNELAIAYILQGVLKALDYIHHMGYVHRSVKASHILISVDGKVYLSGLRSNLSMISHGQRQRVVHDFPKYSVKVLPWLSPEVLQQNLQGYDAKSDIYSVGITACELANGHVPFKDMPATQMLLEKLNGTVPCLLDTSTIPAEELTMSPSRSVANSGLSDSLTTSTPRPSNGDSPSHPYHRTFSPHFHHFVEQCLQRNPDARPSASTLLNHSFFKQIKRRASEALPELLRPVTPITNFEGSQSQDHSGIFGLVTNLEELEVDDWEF
T3 sequence (Q9Y376 1-341 partner): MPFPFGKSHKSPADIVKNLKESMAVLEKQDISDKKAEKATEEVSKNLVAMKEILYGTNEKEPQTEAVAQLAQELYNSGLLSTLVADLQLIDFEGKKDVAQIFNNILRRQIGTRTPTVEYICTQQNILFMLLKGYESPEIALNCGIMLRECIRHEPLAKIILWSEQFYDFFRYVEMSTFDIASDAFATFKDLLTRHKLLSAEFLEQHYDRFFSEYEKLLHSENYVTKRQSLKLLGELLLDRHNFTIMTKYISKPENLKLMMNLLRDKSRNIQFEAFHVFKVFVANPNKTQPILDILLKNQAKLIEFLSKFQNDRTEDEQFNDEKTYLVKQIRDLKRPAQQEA
Put plainly: Kinase profiling LKB1. The assay is classed as biochemical.
From the text: as §1

In the next assay the target is MLK3 (Homo sapiens, UniProt Q16584). The assay is described as follows: Kinase profiling MLK3. The assay is classed as biochemical.
From the text: as §1

Another assay concerns CK2. The assay is described as follows: Kinase profiling CK2. Type of assay: biochemical.
From the text: as §1

The mark [1] stands for this setting: 100 micromolar inhibitor concentration, 100 is no change.
Setting [2] is: 100 micromolar inhibitor, 100 = no change.

Each structure is given as a SMILES string.

ERK1, sequence (P27361 whole entry, species assumed): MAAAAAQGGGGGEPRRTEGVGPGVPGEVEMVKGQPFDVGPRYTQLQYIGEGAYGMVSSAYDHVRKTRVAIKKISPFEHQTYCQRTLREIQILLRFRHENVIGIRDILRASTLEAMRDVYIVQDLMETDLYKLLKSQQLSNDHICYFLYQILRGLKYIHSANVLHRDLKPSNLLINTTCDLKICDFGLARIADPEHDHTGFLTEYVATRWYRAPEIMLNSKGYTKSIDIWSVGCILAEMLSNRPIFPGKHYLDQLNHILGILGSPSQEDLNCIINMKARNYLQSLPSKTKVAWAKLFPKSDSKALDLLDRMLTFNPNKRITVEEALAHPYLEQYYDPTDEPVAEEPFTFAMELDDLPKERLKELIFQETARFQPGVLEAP
PKBb, sequence (P31751 whole entry): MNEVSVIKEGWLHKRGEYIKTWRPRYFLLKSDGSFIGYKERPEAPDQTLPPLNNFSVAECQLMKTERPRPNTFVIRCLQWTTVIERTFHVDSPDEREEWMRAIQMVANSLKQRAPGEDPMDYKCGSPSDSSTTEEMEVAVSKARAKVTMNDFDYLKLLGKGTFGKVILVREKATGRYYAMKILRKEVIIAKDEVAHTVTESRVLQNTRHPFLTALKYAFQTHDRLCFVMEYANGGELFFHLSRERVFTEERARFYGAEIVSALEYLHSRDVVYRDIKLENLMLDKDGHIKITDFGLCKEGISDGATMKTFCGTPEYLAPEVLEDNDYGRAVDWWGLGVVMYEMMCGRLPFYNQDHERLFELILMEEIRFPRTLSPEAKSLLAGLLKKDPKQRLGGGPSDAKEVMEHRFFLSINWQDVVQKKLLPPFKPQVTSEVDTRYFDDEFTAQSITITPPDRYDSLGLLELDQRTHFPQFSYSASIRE
MKK2, sequence (P36507 whole entry, species assumed): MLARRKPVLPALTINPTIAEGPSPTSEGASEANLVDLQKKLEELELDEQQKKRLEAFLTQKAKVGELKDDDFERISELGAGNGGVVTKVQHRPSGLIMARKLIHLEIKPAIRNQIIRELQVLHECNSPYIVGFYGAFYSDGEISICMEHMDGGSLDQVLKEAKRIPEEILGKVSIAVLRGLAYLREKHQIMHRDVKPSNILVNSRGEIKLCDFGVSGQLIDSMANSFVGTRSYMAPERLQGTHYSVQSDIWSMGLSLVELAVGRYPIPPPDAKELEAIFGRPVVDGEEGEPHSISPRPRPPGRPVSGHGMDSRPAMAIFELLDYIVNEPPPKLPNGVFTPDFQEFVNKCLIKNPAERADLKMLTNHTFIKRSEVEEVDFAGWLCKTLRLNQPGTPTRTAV
JNK1, sequence (P45983 whole entry, species assumed): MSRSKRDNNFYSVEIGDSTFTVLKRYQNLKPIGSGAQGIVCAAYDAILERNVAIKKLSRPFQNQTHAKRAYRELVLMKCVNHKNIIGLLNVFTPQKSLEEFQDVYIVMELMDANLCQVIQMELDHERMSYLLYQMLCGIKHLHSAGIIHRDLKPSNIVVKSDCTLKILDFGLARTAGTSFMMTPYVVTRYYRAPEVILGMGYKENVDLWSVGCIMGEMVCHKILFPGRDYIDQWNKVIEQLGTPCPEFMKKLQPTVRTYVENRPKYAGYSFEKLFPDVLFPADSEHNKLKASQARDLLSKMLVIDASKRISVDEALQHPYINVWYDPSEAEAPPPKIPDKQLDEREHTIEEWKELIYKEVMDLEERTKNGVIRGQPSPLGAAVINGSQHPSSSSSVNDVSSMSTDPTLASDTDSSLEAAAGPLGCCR
MLK3, sequence (Q16584 whole entry, species assumed): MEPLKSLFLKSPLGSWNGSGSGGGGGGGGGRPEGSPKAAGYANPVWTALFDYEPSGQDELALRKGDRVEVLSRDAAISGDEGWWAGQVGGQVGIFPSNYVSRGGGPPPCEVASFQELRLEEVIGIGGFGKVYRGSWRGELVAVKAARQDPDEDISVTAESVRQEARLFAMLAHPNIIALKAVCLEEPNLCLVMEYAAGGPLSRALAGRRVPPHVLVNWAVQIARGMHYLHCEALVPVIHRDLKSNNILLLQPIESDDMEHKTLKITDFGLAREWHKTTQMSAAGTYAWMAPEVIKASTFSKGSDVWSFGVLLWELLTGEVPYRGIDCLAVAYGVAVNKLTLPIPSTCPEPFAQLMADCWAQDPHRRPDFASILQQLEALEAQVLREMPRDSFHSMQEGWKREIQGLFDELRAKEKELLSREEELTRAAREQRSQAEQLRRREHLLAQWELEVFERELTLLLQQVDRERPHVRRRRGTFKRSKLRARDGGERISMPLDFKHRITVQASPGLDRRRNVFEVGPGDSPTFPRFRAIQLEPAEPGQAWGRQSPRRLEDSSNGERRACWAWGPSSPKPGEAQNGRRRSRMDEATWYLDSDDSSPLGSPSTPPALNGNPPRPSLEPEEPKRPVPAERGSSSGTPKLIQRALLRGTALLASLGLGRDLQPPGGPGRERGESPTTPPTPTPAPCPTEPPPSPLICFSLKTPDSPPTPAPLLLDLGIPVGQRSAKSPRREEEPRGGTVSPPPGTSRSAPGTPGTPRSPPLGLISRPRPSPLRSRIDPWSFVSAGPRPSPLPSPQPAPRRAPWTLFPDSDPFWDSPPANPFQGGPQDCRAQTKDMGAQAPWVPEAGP
SRPK1, sequence (Q96SB4 whole entry, species assumed): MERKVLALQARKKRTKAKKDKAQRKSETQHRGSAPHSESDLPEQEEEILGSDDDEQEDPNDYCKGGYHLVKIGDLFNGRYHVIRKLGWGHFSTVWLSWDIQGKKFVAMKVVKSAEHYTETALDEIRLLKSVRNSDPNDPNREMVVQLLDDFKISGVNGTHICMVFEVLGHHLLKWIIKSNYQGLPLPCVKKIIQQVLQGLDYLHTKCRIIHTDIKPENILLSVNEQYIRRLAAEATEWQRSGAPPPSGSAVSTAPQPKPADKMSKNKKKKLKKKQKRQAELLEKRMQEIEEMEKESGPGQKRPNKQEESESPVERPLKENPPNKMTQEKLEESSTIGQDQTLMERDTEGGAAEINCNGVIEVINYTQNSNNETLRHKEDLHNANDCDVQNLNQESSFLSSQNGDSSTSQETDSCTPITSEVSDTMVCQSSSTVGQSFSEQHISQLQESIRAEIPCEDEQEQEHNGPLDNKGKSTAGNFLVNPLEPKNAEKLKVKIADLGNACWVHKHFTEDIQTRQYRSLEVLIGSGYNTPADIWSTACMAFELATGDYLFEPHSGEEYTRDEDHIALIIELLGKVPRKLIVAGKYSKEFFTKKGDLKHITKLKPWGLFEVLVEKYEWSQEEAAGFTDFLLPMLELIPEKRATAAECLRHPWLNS
IGF-1R, sequence (P08069 31-1367, species assumed): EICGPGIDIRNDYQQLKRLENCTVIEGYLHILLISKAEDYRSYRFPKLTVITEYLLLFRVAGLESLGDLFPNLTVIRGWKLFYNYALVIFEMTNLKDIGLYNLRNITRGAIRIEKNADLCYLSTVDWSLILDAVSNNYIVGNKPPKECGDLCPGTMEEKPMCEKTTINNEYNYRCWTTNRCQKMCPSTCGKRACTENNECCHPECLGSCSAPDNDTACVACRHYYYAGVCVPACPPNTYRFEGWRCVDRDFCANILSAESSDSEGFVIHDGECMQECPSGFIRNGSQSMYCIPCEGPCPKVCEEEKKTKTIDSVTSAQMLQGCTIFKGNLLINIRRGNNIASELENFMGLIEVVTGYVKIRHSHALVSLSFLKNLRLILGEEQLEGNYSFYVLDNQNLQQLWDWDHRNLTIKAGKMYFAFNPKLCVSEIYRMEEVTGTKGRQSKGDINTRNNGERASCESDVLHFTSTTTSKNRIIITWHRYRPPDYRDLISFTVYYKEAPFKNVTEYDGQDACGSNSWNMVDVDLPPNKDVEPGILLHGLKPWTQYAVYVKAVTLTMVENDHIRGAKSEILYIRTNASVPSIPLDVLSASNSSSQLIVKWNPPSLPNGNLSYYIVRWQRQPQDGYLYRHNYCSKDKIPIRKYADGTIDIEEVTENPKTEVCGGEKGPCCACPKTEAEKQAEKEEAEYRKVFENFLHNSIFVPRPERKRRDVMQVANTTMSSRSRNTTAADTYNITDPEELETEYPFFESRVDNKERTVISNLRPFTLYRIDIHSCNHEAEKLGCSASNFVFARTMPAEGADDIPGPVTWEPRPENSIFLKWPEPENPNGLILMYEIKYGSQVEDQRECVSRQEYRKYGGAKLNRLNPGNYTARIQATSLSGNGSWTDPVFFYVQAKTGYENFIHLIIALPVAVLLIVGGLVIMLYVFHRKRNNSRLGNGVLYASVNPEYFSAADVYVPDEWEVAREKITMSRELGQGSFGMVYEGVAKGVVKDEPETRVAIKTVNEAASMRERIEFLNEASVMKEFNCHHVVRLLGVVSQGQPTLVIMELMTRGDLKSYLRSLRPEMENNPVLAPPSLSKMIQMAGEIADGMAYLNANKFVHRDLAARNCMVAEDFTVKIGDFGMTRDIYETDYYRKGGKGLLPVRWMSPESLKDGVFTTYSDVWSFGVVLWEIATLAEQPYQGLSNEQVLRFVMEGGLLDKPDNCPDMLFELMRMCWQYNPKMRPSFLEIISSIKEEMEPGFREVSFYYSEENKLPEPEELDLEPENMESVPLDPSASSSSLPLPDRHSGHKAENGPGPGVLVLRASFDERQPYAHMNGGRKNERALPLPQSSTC
CAMK1, sequence (Q14012 whole entry, species assumed): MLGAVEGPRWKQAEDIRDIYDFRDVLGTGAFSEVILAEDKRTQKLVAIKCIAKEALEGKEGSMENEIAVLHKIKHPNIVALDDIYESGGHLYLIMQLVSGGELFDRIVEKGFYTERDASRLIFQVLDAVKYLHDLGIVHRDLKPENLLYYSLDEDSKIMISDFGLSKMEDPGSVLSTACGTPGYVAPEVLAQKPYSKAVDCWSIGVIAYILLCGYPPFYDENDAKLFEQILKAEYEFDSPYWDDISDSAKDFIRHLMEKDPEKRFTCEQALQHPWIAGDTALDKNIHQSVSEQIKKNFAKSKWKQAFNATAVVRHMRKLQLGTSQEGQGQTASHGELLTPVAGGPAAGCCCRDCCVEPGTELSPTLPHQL

For the molecule `CC(=O)Nc1cccc(C(=O)Nc2nc3ccc(O)cc3s2)c1` [Compound 03-58], on MKK2, the “residual kinase activity, MKK2” value turned out to be 86. The “residual kinase activity, PKCz” value at PKCz was 84. Besides, at SGK1 (setting [1]), the “residual kinase activity, SGK1” value is 41. Further, the “residual kinase activity, PKBb” value on PKBb was 80. Besides, the “residual kinase activity, JNK1” value at JNK1 (setting [1]) worked out at 80. Besides, at ERK1, the “residual kinase activity, ERK1” value was determined as 84.
Turning to `CC(=O)NC(C)C(=O)Nc1nc2ccc(C(F)(F)F)cc2s1` (stereo not drawn) [Compound 03-80], the “residual kinase activity, MKK2” value on MKK2 was 75. The “residual kinase activity, PKCz” value on PKCz was found to be 75. For the same molecule, the “residual kinase activity, SGK1” value at SGK1 (setting [1]) is 55. Also, on PKBb, the “residual kinase activity, PKBb” value is listed as 93. In addition, the “residual kinase activity, JNK1” value at JNK1 (setting [1]) worked out at 86. For the same molecule, on ERK1, the “residual kinase activity, ERK1” value is given as 94.
As to `CC(=O)Nc1ccccc1C(=O)Nc1nc2ccc(O)cc2s1` [Compound 08-39], the “residual kinase activity, MKK2” value on MKK2 amounted to 78. In addition, the “residual kinase activity, PKCz” value at PKCz is recorded as 38. For the same molecule, the “residual kinase activity, SGK1” value at SGK1 (setting [1]) came to 35. Further, the “residual kinase activity, PKBb” value on PKBb stood at 4. For the same molecule, the “residual kinase activity, JNK1” value on JNK1 (setting [1]) is recorded as 92. The “residual kinase activity, ERK1” value on ERK1 is 18.
For `CC(=O)Nc1nc2ccc([N+](=O)[O-])cc2s1` [Compound 13-10], the remaining activity at 100 µM on CAMK1 (100 micromolar inhibitor concentration, 100 is no change, read-out: residual kinase activity, CAMK1) is 84%; at SRPK1 (100 micromolar inhibitor concentration, 100 is no change, read-out: residual kinase activity, SRPK1), 62%; on SGK1 (100 micromolar inhibitor concentration, 100 is no change, read-out: residual kinase activity, SGK1), 58%; at JNK1 (100 micromolar inhibitor concentration, 100 is no change, read-out: residual kinase activity, JNK1) it was 82%; at IGF-1R (100 micromolar inhibitor concentration, 100 is no change, read-out: residual kinase activity, IGF-1R) it was 91%; at LKB1 (100 micromolar inhibitor concentration, 100 is no change, read-out: residual kinase activity, LKB1), 73%. Moreover, the remaining activity at 100 µM on MLK3 (100 micromolar inhibitor concentration, 100 is no change, read-out: residual kinase activity, MLK3) was 54%. For the same molecule, the “residual kinase activity, AMPK (hum)” value in the assay on AMPK (hum) (setting [1]) was 70. In addition, the “residual kinase activity, CK2” value in the assay on CK2 (setting [1]) amounted to 51.
Consider `COc1cccc(NC(=O)Nc2nc3cc(O)ccc3s2)c1` [Compound 13-62], for which the “residual kinase activity, CAMK1” value at CAMK1 (setting [2]) is reported as 8. Further, the “residual kinase activity, SRPK1” value on SRPK1 (setting [2]) came to 3. Moreover, the “residual kinase activity, SGK1” value on SGK1 (setting [2]) is 21. The “residual kinase activity, JNK1” value at JNK1 (setting [2]) is on record as 114. Further, the “residual kinase activity, AMPK (hum)” value in the assay on AMPK (hum) (setting [2]) came to 23. In addition, on IGF-1R (setting [2]), the “residual kinase activity, IGF-1R” value is reported as 62. Further, the “residual kinase activity, LKB1” value at LKB1 (setting [2]) came out at 91. Moreover, the “residual kinase activity, MLK3” value at MLK3 (setting [2]) is given as 13. Further, in the assay on CK2 (setting [2]), the “residual kinase activity, CK2” value came to 24.
As to `COc1ccc2sc(NC(=O)c3ccc(NC(C)=O)cc3)nc2c1` [MS:LY-2-77], on MKK2, the “residual kinase activity, MKK2” value stood at 95. Moreover, the “residual kinase activity, PKCz” value at PKCz was 107. For the same molecule, the “residual kinase activity, SGK1” value at SGK1 (setting [1]) turned out to be 101. Moreover, the “residual kinase activity, PKBb” value at PKBb came out at 44. On JNK1 (setting [1]), the “residual kinase activity, JNK1” value is 104. Besides, on ERK1, the “residual kinase activity, ERK1” value is listed as 87.
On to `COc1ccc2sc(NC(=O)c3cccc(NC(C)=O)c3)nc2c1` [MS:LY-2-85], for which the “residual kinase activity, MKK2” value at MKK2 was found to be 80. The “residual kinase activity, PKCz” value on PKCz was 101. Besides, at SGK1 (setting [1]), the “residual kinase activity, SGK1” value came out at 75. Further, at PKBb, the “residual kinase activity, PKBb” value is given as 22. The “residual kinase activity, JNK1” value at JNK1 (setting [1]) was determined as 97. The “residual kinase activity, ERK1” value at ERK1 came out at 86.
In the case of `CC(=O)Nc1ccc(C(=O)Nc2nc3cc(O)ccc3s2)cc1` [MS:LY-2-87], the “residual kinase activity, MKK2” value on MKK2 is given as 73. Moreover, on PKCz, the “residual kinase activity, PKCz” value was determined as 83. Besides, the “residual kinase activity, SGK1” value at SGK1 (setting [1]) is listed as 43. Further, the “residual kinase activity, PKBb” value on PKBb is 18. Besides, at JNK1 (setting [1]), the “residual kinase activity, JNK1” value is reported as 105. In addition, the “residual kinase activity, ERK1” value on ERK1 is 70.
`CC(=O)Nc1cccc(C(=O)Nc2nc3cc(O)ccc3s2)c1` [MS:LY-2-89]: the “residual kinase activity, MKK2” value on MKK2 came to 47. Besides, the “residual kinase activity, PKCz” value on PKCz was 80. The “residual kinase activity, SGK1” value on SGK1 (setting [1]) amounted to 28. Also, on PKBb, the “residual kinase activity, PKBb” value is listed as 7. Also, on JNK1 (setting [1]), the “residual kinase activity, JNK1” value is recorded as 68. Besides, on ERK1, the “residual kinase activity, ERK1” value stood at 54.

The record behind these values is patent US10231954B2, “Neurodegenerative therapies” (LYTIX BIOPHARMA AS, priority 2014, dated 2019).
